Data published in article doi:10.1101/2025.11.18.689095 (bioRxiv, 2025).
Where no end group is shown, it is not given here.

Experiments:
Tom70:Orf9b complex [1] = biological target: Tom70:Orf9b complex; set-up: species or system human Tom70; SARS-CoV-2 Orf9b; conditions: read-out: binding affinity (KD) of full-length Hsp90 to Tom70:Orf9b complex; pH 8
Tom70:Orf9b complex [2] = assay type: binding, human Tom70; SARS-CoV-2 Orf9b
Tom70:Orf9bHelix complex [3] = biological target: T1, Tom70:Orf9bHelix complex (Homo sapiens, UniProt O94826); assay type: binding, human Tom70; SARS-CoV-2 Orf9b; conditions: pH 8
T1 construct: human Tom70 (residues 108–608); Avi tag (N, cleaved yes); His6 tag (N, cleaved yes); (GGS)5 linker and TEV cleavage site (N, cleaved yes); host or cells: E. coli BL21 (DE3) for Tom70; synthetic peptide
T1 sequence (P0DTD2 44-77 partner limits assumed, one chain of several): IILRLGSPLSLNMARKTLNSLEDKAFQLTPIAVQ

Tom70 = assay: BLI kinetics, Hsp90 with free Tom70; assay type: binding, human
Experimental: We therefore indirectly estimated kon values by combining koff values obtained from BLI with KD values determined by ITC, i.e., kon=koffBLI/KDITC .
Biotinylated Hsp90 proteins were immobilized onto streptavidin biosensor probes, and experiments were conducted in buffer containing 20 mM sodium phosphate (pH 7), 150 mM NaCl, 1% BSA, 0.6 M sucrose, and 1 mM TCEP[68]. […] To combat heterogenous binding, dissociation curves were fit with a two-phase exponential curve. Due to the association rate (kon) being too rapid to quantify, kon values were indirectly estimated by combining koff values obtained from BLI with KD values determined by ITC ( kon=koffBLI/KDITC ). All data are corrected for non-specific binding. Error is given as the standard deviation of at least two measurements.

[4] = biological target: T2, human Tom70 (residues 108–608) (Homo sapiens, UniProt O94826); assay: ITC, Hsp90 binding to free Tom70
T2 construct: human Tom70 (residues 108–608); Avi tag (N, cleaved yes); His6 tag (N, cleaved yes); (GGS)5 linker and TEV cleavage site (N, cleaved yes); made in house; host or cells: E. coli BL21 (DE3)
T2 sequence (O94826 108-608): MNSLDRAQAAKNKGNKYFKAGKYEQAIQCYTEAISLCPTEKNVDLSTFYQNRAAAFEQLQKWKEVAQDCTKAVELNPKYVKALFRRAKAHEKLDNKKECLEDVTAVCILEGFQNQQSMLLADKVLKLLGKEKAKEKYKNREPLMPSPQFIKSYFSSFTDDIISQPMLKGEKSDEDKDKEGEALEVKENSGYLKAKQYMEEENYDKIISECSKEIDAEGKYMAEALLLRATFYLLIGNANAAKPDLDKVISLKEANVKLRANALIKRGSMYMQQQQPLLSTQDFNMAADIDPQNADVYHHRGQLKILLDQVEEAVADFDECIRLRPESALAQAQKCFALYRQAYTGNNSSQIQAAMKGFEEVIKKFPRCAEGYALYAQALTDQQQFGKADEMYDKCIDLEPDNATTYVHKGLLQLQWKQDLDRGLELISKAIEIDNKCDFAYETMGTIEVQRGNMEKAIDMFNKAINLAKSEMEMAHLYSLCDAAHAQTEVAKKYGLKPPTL
Experimental: (§1) All ITC experiments were recorded at 20°C using a Microcal-PEAQ-ITC calorimeter (Malvern Panalytical). Experiments involving full-length Hsp90 or the Hsp90EEVD peptide were carried out in buffer containing 20 mM sodium phosphate (pH 8), 150 mM NaCl, 2 mM TCEP, and 10% glycerol. 10% glycerol was required to prevent precipitation of Hsp90 during titration.
(§2) Unbound Orf9bHelix was removed via multiple rounds of concentration and buffer exchange on a concentrator (Vivaspin 20, Satorius). Orf9b truncation mutant complexes were produced in the same way. Experiments involving the binding of Orf9bHelix titrated into Tom70 were carried out in buffer containing 20 mM sodium phosphate (pH 7), 100 mM NaCl, and 2 mM TCEP. Orf9bHelix (120 μM) was titrated into 15 μM Tom70 or Tom70:Hsp90EEVD complex (15 μM Tom70: 400 μM Hsp90EEVD).
(§3) All data was fit using a 1:1 binding model to obtain the reported thermodynamic parameters using the software provided by the instrument. Reported parameters are the average and standard deviation of individual runs of the experiment, as outlined in supplementary information (Figs S3 and S9).

[5] = biological target: T2, human Tom70 (residues 108–608); assay: ITC, Hsp90EEVD peptide binding to free Tom70; conditions: 20°C, pH 8, 150 mM NaCl, 2 mM TCEP, 10% glycerol, Hsp90EEVD (400–500 μM) into Tom70 (30 μM), mean ± SD of 3 measurements, read-out: KD of Hsp90EEVD to Tom70 alone
Experimental: as §1, §2, §3

Tom70:Orf9bHelix complex [6] = biological target: T1, Tom70:Orf9bHelix complex; assay: biochemical; assay type: binding, human Tom70; SARS-CoV-2 Orf9b

Substance	Kd (Tom70:Orf9b complex [1])	kon for Hsp90 binding to Tom70 in presence of bound full-length Orf9b (Tom70:Orf9b complex [2])	thermodynamic signature of binding to Tom70-Orf9bHelix complex (Tom70:Orf9bHelix complex [3])	association rate of Hsp90 to free Tom70 (BLI, direct) (Tom70; BLI, 25°C, pH 7, 150 mM NaCl, 1% BSA, 0.6 M sucrose, 1 mM TCEP, Hsp90 immobilized)	kon for Hsp90 binding to free Tom70 (Tom70; indirectly estimated, kon = koff(BLI)/KD(ITC), BLI 25°C pH 7, ITC 20°C pH 8, SD of at least two measurements)	Kd ([4]; 20°C, 20 mM sodium phosphate pH 8, 150 mM NaCl, 2 mM TCEP, 10% glycerol, Tom70 (400 μM) into Hsp90 (20 μM), 1:1 model, mean ± SD of 3 measurements, read-out: binding affinity (KD) of full-length Hsp90 to free Tom70)	thermodynamic signature of binding to free Tom70 ([4]; 20°C, pH 8, Fig 5C)	affinity of full-length Hsp90 to free Tom70 relative to Hsp90EEVD peptide ([4]; higher affinity than the Hsp90EEVD peptide)	Kd [5]	Kd (Tom70:Orf9bHelix complex [6])
Hsp90: human Hsp90α (residues 1–732), expressed in E. coli	22 ± 1 µM	0.02 ± 0.01 µM⁻¹ s⁻¹	driven entirely by a favorable enthalpy change	too rapid to quantify accurately	0.5 ± 0.2 µM⁻¹ s⁻¹	3000 ± 1000 nM	a favorable entropy change was the major driving force	4 fold		
YDTSRMEEVD [Hsp90EEVD]									12 ± 1 µM	12 ± 1 µM
